Here are results for five molecules from patent US6541484B2 (dated 2003).

Structures can show the parent of a compound that is named as a salt.

For orientation: melting point means the temperature of the solid-liquid transition.

Regarding `CCn1ncnc1COc1nc2c(cnn2-c2ccccc2)cc1C(C)(C)C` (as salt: hydrochloride), the melting point lay in the range of 150 to 152 °C.

`Cn1ncnc1COc1cc(N)c2cnn(-c3ccccc3)c2n1` came in with a melting point of 164 to 166 °C. Under `CCn1ncnc1COc1nc2c(cnn2-c2ccccc2)c2ccccc12` stands 147 to 148 °C; under `Cn1ncnc1COc1nc2c(cnn2-c2ccccc2)c2ccccc12`, 149 to 151 °C; under `Cn1ncnc1COc1nc2c(cnn2-c2ccccc2)cc1C(C)(C)C`, 143 to 145 °C.
